Laboratory results taken from the NIST ThermoML archive (doi:10.1016/j.jct.2018.05.012).
Numbers after ± are expanded uncertainties.

Test: xn = mol fraction of the nth substance listed
Conditions: 100 kPa, Liquid; for speed of sound: Frequency=3 MHz, Single path-length method; for mass density: Vibrating tube method

C1COCO1 [1,3-dioxolane] + C1COCCO1
Conditions | mass density, 293.15 K [kg/m3] | mass density, 298.15 K [kg/m3] | mass density, 303.15 K [kg/m3] | mass density, 308.15 K [kg/m3] | speed of sound, 293.15 K [m/s] | speed of sound, 298.15 K [m/s] | speed of sound, 303.15 K [m/s] | speed of sound, 308.15 K [m/s]
x1 = 0.1184 | 1036.5 ± 1 | 1030.8 ± 1 | 1025.1 ± 1 | 1019.3 ± 1 | 1367 ± 1.4 | 1345.1 ± 1.4 | 1323.5 ± 1.4 | 1301.6 ± 1.4
x1 = 0.1694 | 1037.8 ± 1 | 1032.1 ± 1 | 1026.4 ± 1 | 1020.6 ± 1 | 1366.7 ± 1.4 | 1344.8 ± 1.4 | 1323.1 ± 1.4 | 1301.2 ± 1.4
x1 = 0.2145 | 1039 ± 1 | 1033.3 ± 1 | 1027.5 ± 1 | 1021.7 ± 1 | 1366.4 ± 1.4 | 1344.5 ± 1.4 | 1322.8 ± 1.4 | 1300.8 ± 1.4
x1 = 0.2632 | 1040.4 ± 1 | 1034.6 ± 1 | 1028.8 ± 1 | 1022.9 ± 1 | 1366.1 ± 1.4 | 1344.1 ± 1.4 | 1322.4 ± 1.4 | 1300.5 ± 1.4
x1 = 0.3154 | 1041.8 ± 1 | 1036.1 ± 1 | 1030.2 ± 1 | 1024.3 ± 1 | 1365.8 ± 1.4 | 1343.8 ± 1.4 | 1322.1 ± 1.4 | 1300.1 ± 1.4
x1 = 0.3689 | 1043.3 ± 1 | 1037.6 ± 1 | 1031.7 ± 1 | 1025.8 ± 1 | 1365.5 ± 1.4 | 1343.5 ± 1.4 | 1321.7 ± 1.4 | 1299.7 ± 1.4
x1 = 0.4184 | 1044.8 ± 1 | 1039 ± 1 | 1033.1 ± 1 | 1027.2 ± 1 | 1365.2 ± 1.4 | 1343.1 ± 1.4 | 1321.3 ± 1.4 | 1299.4 ± 1.4
x1 = 0.4697 | 1046.3 ± 1 | 1040.5 ± 1 | 1034.6 ± 1 | 1028.6 ± 1 | 1364.9 ± 1.4 | 1342.8 ± 1.4 | 1321 ± 1.4 | 1299 ± 1.4
x1 = 0.5124 | 1047.6 ± 1 | 1041.8 ± 1 | 1035.8 ± 1 | 1029.9 ± 1 | 1364.6 ± 1.4 | 1342.5 ± 1.4 | 1320.7 ± 1.4 | 1298.7 ± 1.4
x1 = 0.5674 | 1049.4 ± 1 | 1043.6 ± 1 | 1037.5 ± 1 | 1031.5 ± 1 | 1364.3 ± 1.4 | 1342.1 ± 1.4 | 1320.3 ± 1.4 | 1298.3 ± 1.4
x1 = 0.6282 | 1051.4 ± 1 | 1045.5 ± 1 | 1039.5 ± 1 | 1033.4 ± 1 | 1363.9 ± 1.4 | 1341.7 ± 1.4 | 1319.8 ± 1.4 | 1297.9 ± 1.4
x1 = 0.6734 | 1052.9 ± 1 | 1047 ± 1 | 1040.9 ± 1 | 1034.8 ± 1 | 1363.6 ± 1.4 | 1341.4 ± 1.4 | 1319.5 ± 1.4 | 1297.5 ± 1.4
x1 = 0.7231 | 1054.6 ± 1 | 1048.7 ± 1 | 1042.6 ± 1 | 1036.5 ± 1 | 1363.3 ± 1.4 | 1341 ± 1.4 | 1319.1 ± 1.4 | 1297.1 ± 1.4
x1 = 0.7626 | 1055.9 ± 1 | 1050.1 ± 1 | 1043.9 ± 1 | 1037.8 ± 1 | 1363 ± 1.4 | 1340.7 ± 1.4 | 1318.8 ± 1.4 | 1296.8 ± 1.4
x1 = 0.7992 | 1057.2 ± 1 | 1051.4 ± 1 | 1045.2 ± 1 | 1039 ± 1 | 1362.7 ± 1.4 | 1340.4 ± 1.4 | 1318.5 ± 1.4 | 1296.5 ± 1.4
x1 = 0.8486 | 1059 ± 1 | 1053.1 ± 1 | 1046.9 ± 1 | 1040.7 ± 1 | 1362.4 ± 1.4 | 1340 ± 1.4 | 1318.1 ± 1.4 | 1296.1 ± 1.4
x1 = 0.8815 | 1060.2 ± 1 | 1054.3 ± 1 | 1048.1 ± 1 | 1041.9 ± 1 | 1362.1 ± 1.4 | 1339.8 ± 1.4 | 1317.8 ± 1.4 | 1295.8 ± 1.4
x1 = 0.9102 | 1061.3 ± 1 | 1055.4 ± 1 | 1049.1 ± 1 | 1042.9 ± 1 | 1361.9 ± 1.4 | 1339.5 ± 1.4 | 1317.5 ± 1.4 | 1295.5 ± 1.4
